Test results published in patent US20230085307A1, “PYRIDAZINONE COMPOUND AND HERBICIDE” (NISSAN CHEMICAL CORPORATION, priority 2019, published 2023).

Experiments:
[1] = system: late watergrass; assay: Test Example 1: herbicidal activity, application before weed generation under submerged conditions (Table 16, symbol A); type: in vivo, late watergrass (Echinochloa oryzicola); conditions: 320 g/ha applied herbicide
In short: (§1)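 Emulsion formulation, water-diluted to set dose, was put onto the flooded surface (4 cm depth, alluvial soil) the same day weeds were sown and 2.5-leaf rice transplanted. After 3 weeks at 25-30 °C under glass, each species was rated 0 (≤5% kill) to 5 (≥90% kill).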

[2] = system: Japanese bulrush; assay: Test Example 1: herbicidal activity, application before weed generation under submerged conditions (Table 16, symbol B); type: in vivo, Japanese bulrush (Schoenoplectus juncoides); conditions: 320 g/ha applied herbicide
In short: as §1

[3] = system: barnyard grass; assay: Test Example 3: herbicidal effect by foliage application, Wagner pot (Table 18, symbol H); type: in vivo, barnyard grass (Echinochloa crus-galli); conditions: 320 g/ha
In short: (§2)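 Plants were sown in alluvial soil held under 0.1–0.5 cm standing water and grown 14 days in a greenhouse at 25–30 °C. An emulsifiable formulation, water-diluted to the set dose, was then sprayed onto the foliage, and effects were scored three weeks later using previously defined criteria.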

[4] = system: Chinese sprangletop; assay: Test Example 3: herbicidal effect by foliage application, Wagner pot (Table 18, symbol D); type: in vivo, chinese sprangletop (Leptochloa chinensis); conditions: 320 g/ha
In short: as §2

[5] = system: rice flat sedge; assay: Test Example 3: herbicidal effect by foliage application, Wagner pot (Table 18, symbol E); type: in vivo, rice flat sedge (Cyperus iria); conditions: 320 g/ha
In short: as §2

[6] = system: southern crabgrass; assay: Test Example 5: herbicidal effect by foliage application, plastic box (Table 20, symbol F); type: in vivo, southern crabgrass (Digitaria ciliaris); conditions: foliage application, 320 g/ha, three weeks after application
In short: (§3)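 Post-emergence foliar test in sterilized diluvial soil. Compound applied as water-diluted emulsion at a predetermined rate to 14-day-old plants; evaluation at three weeks.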

[7] = system: green foxtail; assay: Test Example 5: herbicidal effect by foliage application, plastic box (Table 20, symbol G); type: in vivo, green foxtail (Setaria viridis); conditions: foliage application, 320 g/ha, three weeks after application
In short: as §3

[8] = system: barnyard grass; assay: Test Example 5: herbicidal effect by foliage application, plastic box (Table 20, symbol H); type: in vivo, barnyard grass (Echinochloa crus-galli); conditions: foliage application, 320 g/ha, three weeks after application
In short: as §3

[9] = system: wild oat; assay: Test Example 5: herbicidal effect by foliage application, plastic box (Table 20, symbol I); type: in vivo, wild oat (Avena fatua); conditions: foliage application, 320 g/ha, three weeks after application
In short: as §3

[10] = system: blackgrass; assay: Test Example 5: herbicidal effect by foliage application, plastic box (Table 20, symbol J); type: in vivo, blackgrass (Alopecurus myosuroides); conditions: foliage application, 320 g/ha, three weeks after application
In short: as §3

[11] = system: Italian ryegrass; assay: Test Example 5: herbicidal effect by foliage application, plastic box (Table 20, symbol K); type: in vivo, Italian ryegrass (Lolium multiflorum); conditions: foliage application, 320 g/ha, three weeks after application
In short: as §3

[12] = system: windgrass; assay: Test Example 5: herbicidal effect by foliage application, plastic box (Table 20, symbol L); type: in vivo, windgrass (Apera spica-venti); conditions: foliage application, 320 g/ha, three weeks after application
In short: as §3

[13] = system: velvetleaf; assay: Test Example 5: herbicidal effect by foliage application, plastic box (Table 20, symbol M); type: in vivo, velvetleaf (Abutilon theophrasti); conditions: foliage application, 320 g/ha, three weeks after application
In short: as §3

[14] = system: redroot pigweed; assay: Test Example 5: herbicidal effect by foliage application, plastic box (Table 20, symbol N); type: in vivo, redroot pigweed (Amaranthus retroflexus); conditions: foliage application, 320 g/ha, three weeks after application
In short: as §3

[15] = system: lambsquarters; assay: Test Example 5: herbicidal effect by foliage application, plastic box (Table 20, symbol O); type: in vivo, lambsquarters (Chenopodium album); conditions: foliage application, 320 g/ha, three weeks after application
In short: as §3

[16] = system: chickweed; assay: Test Example 5: herbicidal effect by foliage application, plastic box (Table 20, symbol P); type: in vivo, common chickweed (Stellaria media); conditions: foliage application, 320 g/ha, three weeks after application
In short: as §3

[17] = system: false cleavers; assay: Test Example 5: herbicidal effect by foliage application, plastic box (Table 20, symbol Q); type: in vivo, false cleavers (Galium spurium); conditions: foliage application, 320 g/ha, three weeks after application
In short: as §3

[18] = system: persian speedwell; assay: Test Example 5: herbicidal effect by foliage application, plastic box (Table 20, symbol R); type: in vivo, Persian speedwell (Veronica persica); conditions: foliage application, 320 g/ha, three weeks after application
In short: as §3

SMILES: CCCCOc1ccccc1-c1sc2ccccc2c1-c1c(O)c(C)nn(C)c1=O [1-022]
- Herbicidal effect on A: late watergrass (grade 0-5) [1]: 2 (Herbicidal rate of 20% or more and less than 40%)
- Herbicidal effect on B: Japanese bulrush (grade 0-5) [2]: 3 (Herbicidal rate of 40% or more and less than 70%)
- herbicidal effect on H (barnyard grass), rating 0-5 [3]: 3 (Herbicidal rate of 40% or more and less than 70%)
- herbicidal effect on D (Chinese sprangletop), rating 0-5 [4]: 0 (Herbicidal rate of 5% or less (almost no effect))
- herbicidal effect on E (rice flat sedge), rating 0-5 [5]: 4 (Herbicidal rate of 70% or more and less than 90%)
- herbicidal effect grade, F: southern crabgrass [6]: 0 (Herbicidal rate of 5% or less (almost no effect))
- herbicidal effect grade, G: green foxtail [7]: 0 (Herbicidal rate of 5% or less (almost no effect))
- herbicidal effect grade, H: barnyard grass [8]: 3 (Herbicidal rate of 40% or more and less than 70%)
- herbicidal effect grade, I: wild oat [9]: 0 (Herbicidal rate of 5% or less (almost no effect))
- herbicidal effect grade, J: blackgrass [10]: 0 (Herbicidal rate of 5% or less (almost no effect))
- herbicidal effect grade, K: Italian ryegrass [11]: 0 (Herbicidal rate of 5% or less (almost no effect))
- herbicidal effect grade, L: windgrass [12]: 0 (Herbicidal rate of 5% or less (almost no effect))
- herbicidal effect grade, M: velvetleaf [13]: 0 (Herbicidal rate of 5% or less (almost no effect))
- herbicidal effect grade, N: redroot pigweed [14]: 3 (Herbicidal rate of 40% or more and less than 70%)
- herbicidal effect grade, O: lambsquarters [15]: 0 (Herbicidal rate of 5% or less (almost no effect))
- herbicidal effect grade, P: chickweed [16]: 5 (Herbicidal rate of 90% or more (almost completely withered))
- herbicidal effect grade, Q: false cleavers [17]: 4 (Herbicidal rate of 70% or more and less than 90%)
- herbicidal effect grade, R: persian speedwell [18]: 5 (Herbicidal rate of 90% or more (almost completely withered))
